# Assay results: patent US20170260285A1, “METHODS FOR TREATING CANCER” (UNIVERSITY OF IOWA RESEARCH FOUNDATION, priority 2014, published 2017)
# “Also recorded” adds a separate entry of the source. Like-named read-outs stand apart in the source and are kept apart here. Residues, ends and D or L forms follow the SMILES beside them. *: point of attachment. Cbz = O=C(OCc1ccccc1)*; CH2F = FC*
# Key:
# [1] = tested on: genes related to inflammation and innate immunity; conditions: one other study (ref. 25); cited from earlier work
# Cal-27 HNSCC cells [2] = test: IL-1α release by ELISA in Cal-27 cells; format: cell-based, human; conditions: for IL-1α after erlotinib treatment over time: erlotinib 5 μM, indicated time points, ELISA; for baseline IL-1α levels: agent 1 h then DMSO 48 h; for erlotinib-induced IL-1α release: agent 1 h then erlotinib 5 μM 48 h
# Protocol: (§1) Erlotinib (ERL; Tarceva) and anakinra (ANA; Kineret) were obtained from the inpatient pharmacy at the University of Iowa Hospitals and Clinics. Drugs were added to cells at final concentrations of 5 μM ERL and 10 ng/mL or 50 ng/mL ANA. Human IgG and […] (DMSO) were used as controls and were obtained from Sigma Aldrich. Human IL-1α, IL-1β, and IL-18Rα neutralizing antibodies were obtained from R&D Systems and were used at a concentration of 0.5 μg/mL. Recombinant human IL-1α was obtained from Life Technologies and administered at a concentration of 1 ng/mL. Ac-Y-VAD-cho, a caspase-1 inhibitor (CalBioChem), was suspended in DMSO and added at a concentration of […], a pan-caspase inhibitor (Promega) was diluted in DMSO and added at a concentration of 20 μM. TLR agonists were used at the following concentrations: Pam3CSK4 (200ng/mL), FSL-1 (100 ng/mL), Poly I:C (20 μg/mL), LPS (200 ng/mL), Flagellin (200 ng/mL), Gardiquimod (1 μg/mL), CL075 (1 μg/mL), and E. coli DNA (1 μg/mL). All TLR agonists were obtained from InvivoGen. The required volume of each drug was added directly to complete cell culture media on cells to achieve the indicated final concentrations.
# (§2) Levels of IL-6, IL-1α and IL-1β of treated cells were determined by ELISA. The culture media of the treated cells were harvested and each cytokine was detected according to the manufacturer's protocol using the Human Quantikine ELISA Kits (R&D Systems, Minneapolis, Minn.).
# (§3) Erlotinib (ERL; Tarceva), anakinra (ANA; Kineret) and N-acetyl cysteine (NAC; Acetadote) were obtained from the inpatient pharmacy at the University of Iowa Hospitals and Clinics. Drugs were added to cells at final concentrations of 5 μM ERL, 10 ng/mL or 50 ng/mL ANA and 20 mM NAC. Human IgG and […] (DMSO) were used as controls and were obtained from Sigma Aldrich. Pegylated catalase (CAT; Sigma Aldrich) was used at a final concentration of 100 U/mL. Human IL-1α, IL-1β, and IL-18Ra neutralizing antibodies were obtained from R&D Systems and were used at a concentration of 0.5 μg/mL. Recombinant human IL-1α was obtained from Life Technologies and administered at a concentration of 1 ng/mL. Ac-Y-VAD-cho (CalBioChem) was suspended in DMSO and used at 5 μM. Z-VAD-fmk (Promega) was diluted in DMSO and used at 20 μM. TLR agonists were used at the following concentrations: Pam3CSK4 (200 ng/mL), FSL-1 (100 ng/mL), Poly I:C (20 μg/mL), LPS (200 ng/mL), Flagellin (200 ng/mL), Gardiquimod (1 μg/mL), CL075 (1 μg/mL), and E. coli DNA (1 μg/mL). All TLR agonists were obtained from InvivoGen. The required volume of each drug was added directly to complete cell culture media on cells to achieve the indicated final concentrations.
# (§4) Levels of IL-6, IL-1α and IL-1β of treated cells were determined by ELISA. The culture media of the treated cells were harvested and each cytokine was detected according to the manufacturer's protocol using Human Quantikine ELISA Kits (R&D Systems, Minneapolis, Minn.).
# [3] = tested on: SQ20B and Cal-27 HNSCC cells; test: IL-1β secretion by ELISA after erlotinib; format: cell-based, human; conditions: erlotinib 5 μM, any time point
# Protocol: as §1, with “TLR agonists were used at the following concentrations: Pam3CSK4 (200ng/mL), FSL-1 (100 ng/mL), Poly I:C (20 μg/mL), LPS (200 ng/mL), Flagellin (200 ng/mL), Gardiquimod (1 μg/mL), CL075 (1 μg/mL), and E. coli DNA (1 μg/mL). All TLR agonists were obtained from InvivoGen. The required volume of each drug was added directly to complete cell culture media on cells to achieve the indicated final concentrations.” left out
# Levels of IL-6, IL-1α and IL-1β of treated cells were determined by ELISA. The culture media of the treated cells were harvested and each cytokine was detected according to the manufacturer's protocol using the Human Quantikine ELISA Kits (R&D Systems, Minneapolis, Minn.). […]
# as §4
# HNSCC tumor cell lines = conditions: previous studies (ref. 10), cited from earlier work
# SQ20B HNSCC cells [4] = test: IL-6 secretion by ELISA in SQ20B cells; format: cell-based, human; conditions: erlotinib 5 μM, 48 h vs DMSO, ELISA
# Text: (§5) Cal-27 and FaDu human head and neck squamous carcinoma (HNSCC) cells were obtained from the American Type Culture Collection (ATCC, Manassas, Va.). SQ20B HNSCC cells (16) were a gift from Dr. Anjali Gupta (Department of Radiation Oncology, The University of Iowa). All HNSCC cell lines are EGFR positive and are sensitive to EGFR inhibitors. All cell lines were authenticated by the ATCC for viability (before freezing and after thawing), growth, morphology and isoenzymology. Cells were stored according to the supplier's instructions and used over a course of no more than 3 months after resuscitation of frozen aliquots. Cultures were maintained in 5% CO2 and air humidified in a 37° C. incubator.
# as §1, §2
# as §5, with “(20)” for “(16)”
# as §3, with “The required volume of each drug was added directly to complete cell culture media on cells to achieve the indicated final concentrations.” left out
# Cal-27 HNSCC cells [5] = test: IL-6 secretion by ELISA in Cal-27 cells; format: cell-based, human; conditions: erlotinib 5 μM, 48 h vs DMSO, ELISA
# Text: as §5, §1, §2
# as §5, with “(20)” for “(16)”
# as §3, with “The required volume of each drug was added directly to complete cell culture media on cells to achieve the indicated final concentrations.” left out
# SQ20B HNSCC cells [6] = test: IL-1α release by ELISA in SQ20B cells; format: cell-based, human; conditions: for IL-1α after erlotinib treatment over time: erlotinib 5 μM, indicated time points, ELISA; for baseline IL-1α levels: agent 1 h then DMSO 48 h; for erlotinib-induced IL-1α release: agent 1 h then erlotinib 5 μM 48 h
# Protocol: as §1, §2, §3, §4
# SQ20B cells [7] = test: TLR gene expression by RTPCR in SQ20B cells; format: cell-based, human
# Protocol: (§6) Total RNA was extracted from cells after indicated time points using RNeasy.Plus mini kit (Qiagen). Conversion of RNA into cDNA was accomplished with the iScript cDNA synthesis kit (Bio-Rad) and a thermocycler with the following conditions: 5 minutes at 25° C., 30 minutes at 42° C., and 5 minutes at 85° C. Subsequent RTPCR analysis was performed in a 96-well optical plate with each well containing 6 μL of cDNA, 7.5 μL of SyBr Green Universal SuperMix (Bio-Rad), and 1.5 μof oligonucleotide primers (sense and antisense; 4 μM) for a total reaction volume of 15 μL. Oligonucleotide primers for human genes were obtained from IDT (Iowa City, Iowa). RTPCR was performed on ABI PRISM Sequence Detection System (model 7000, Applied Biosystems) with the following protocol: 95° C. for 15 seconds (denaturing) and 60° C. for 60 seconds (annealing), repeated for 40 cycles. Threshold cycle (CT) values for analyzed genes (in duplicate) were normalized as compared to GAPDH (cell lines) or 18S (human samples) CT values. Relative abundance was calculated as 0.5̂(ΔCT), with OCT being the CT value of the analyzed gene minus the CT value of the reference gene (GAPDH or 18S).
# SQ20B xenograft tumors = test: HNSCC xenograft tumor growth in nude mice; format: in vivo, athymic nu/nu mice
# Text: Male and female athymic-nu/nu mice (4-5 weeks old) were purchased from Harlan Laboratories (Indianapolis, Ind.). Mice were housed in a pathogen-free barrier room in the Animal Care Facility at the University of Iowa and handled using aseptic procedures. All procedures were approved by the IACUC committee of the University of Iowa and conformed to the guidelines established by the NIH. Mice were allowed at least 3 days to acclimate prior to beginning experimentation, and food and water were made freely available. Tumor cells were inoculated into nude mice by subcutaneous injection of 0.1 mL aliquots of saline containing 2×10^6 SQ20B cells into the right flank using 26-gauge needles.
# Mice started drug treatment 1 week after tumor inoculation. For the MyD88 knockdown experiments, female mice were randomized into 2 treatment groups and orally administered either water or 12.5 mg/kg erlotinib (ERL) daily. For the IL-1α neutralization experiments, male and female mice were randomized into 4 treatment groups as follows. Control group: Mice were administered water orally daily and 1 mg/kg IgG i.p once per week. […] Mice were evaluated daily and tumor measurements taken three times per week using Vernier calipers. Tumor volumes were calculated using the formula: tumor volume=(length×width^2)/2 where the length was the longest dimension, and width was the dimension perpendicular to length. […]
# Cal-27 cells = test: TLR gene expression by RTPCR in Cal-27 cells; format: cell-based, human
# Protocol: as §6
# SQ20B cells [8] = test: Clonogenic survival assay; format: cell-based, human; conditions: Z-VAD 20 μM with erlotinib
# Protocol: Clonogenic survival was determined as previously described (17). Individual assays were performed with multiple dilutions with at least four cloning dishes per data point, repeated in at least 3 separate experiments. Tumor cell implantation: Female 4-5 week old athymic-nu/nu nude mice were purchased from Harlan Laboratories (Indianapolis, IN). Mice were housed in a pathogen-free barrier room in the Animal Care Facility at the University of Iowa and handled using aseptic procedures. All procedures were approved by the IACUC committee of the University of Iowa and conformed to the guidelines established by the NIH. Mice were allowed at least 3 days to acclimate prior to beginning experimentation, and food and water were made freely available. Tumor cells (shCON or shMyD88) were inoculated into nude mice by subcutaneous injection of 0.1 mL aliquots of saline containing 2×10^6 FaDu cells into the right flank using 26-gauge needles.
# Clonogenic survival was determined as previously described (22). Individual assays were performed with multiple dilutions with at least four cloning dishes per data point, repeated in at least 3 separate experiments.
# SQ20B and Cal27 cells = format: cell-based
# Protocol: To determine whether cell death is responsible for IL-1α release, we used Z-VAD-fmk, a pan-caspase inhibitor, to prevent cell death. We also tested Ac-Y-VAD-cho, caspase-1 inhibitor, to assess inflammasome involvement. After testing various combinations of these inhibitors, we found an optimal concentration of 20 μM Z-VAD and 5μM Y-VAD. […] To confirm that the pan-caspase inhibitor was effectively blocking cell death, we performed a clonogenic assay with erlotinib- and Z-VAD-treated cells in SQ20B cells.
# [9] = ERL 5 μM 48 h, absolute levels very low
# [10] = listed as pan-caspase inhibitor
structure (smiles),measurement,setting,value
COc1cc2ncnc(Nc3cccc(Br)c3)c2cc1OC [PD153035],genes related to inflammation and innate immunity,[1],upregulated
"C#Cc1cccc(Nc2ncnc3cc(OCCOC)c(OCCOC)cc23)c1 [erlotinib, Erlotinib]",IL-1α after erlotinib treatment over time,Cal-27 HNSCC cells [2],steadily increased across all time points
same,IL-1α after erlotinib treatment over time,Cal-27 HNSCC cells [2]; listed as ERL,increased across all time points
same,secreted IL-1β after erlotinib treatment,[3],undetectable; also recorded: unable to detect
same,secreted IL-1β after erlotinib treatment,[3]; listed as ERL,not IL-1β was detectable
same,IL-6 expression/secretion in HNSCC cell lines treated with EGFRIs,HNSCC tumor cell lines,significant upregulation
same,IL-6 expression/secretion in HNSCC cell lines treated with EGFRIs,HNSCC tumor cell lines; listed as ERL,induces the secretion of IL-6
same,IL-6 production/secretion with erlotinib,SQ20B HNSCC cells [4],increases IL-6 production
same,IL-6 production/secretion with erlotinib,Cal-27 HNSCC cells [5],increases IL-6 production
same,IL-1α after erlotinib treatment over time,SQ20B HNSCC cells [6],steadily increased across all time points
same,IL-1α after erlotinib treatment over time,SQ20B HNSCC cells [6]; listed as ERL,increased across all time points
same,TLR8 expression,SQ20B cells [7]; [9],increased
same,TLR mRNA expression,SQ20B cells [7]; erlotinib,did not affect
same,anti-tumor activity in vivo with IL-1α blockade,SQ20B xenograft tumors; EGFRI combined with IL-1α blockade (neutralizing IL-1α antibody),significantly increased
same,tumor growth of MyD88-deficient xenografts treated with erlotinib,"SQ20B xenograft tumors; shMyD88 #2 and #9 vs erlotinib-treated control xenografts, 12.5 mg/kg orally daily, three weeks",reduced tumor growth
same,TLR10 expression,Cal-27 cells; [9],increased
same,TLR mRNA expression,Cal-27 cells; erlotinib,did not affect
COC(=O)C[C@H](NC(=O)[C@H](C)NC(=O)[C@@H](NC(=O)OCc1ccccc1)C(C)C)C(=O)CF [Z-VAD-fmk] (Cbz-Val-Ala-Asp(OMe)-CH2F),baseline IL-1α levels,Cal-27 HNSCC cells [2],significantly reduced
same,baseline IL-1α levels,Cal-27 HNSCC cells [2]; listed as Z-VAD,significantly reduce
same,erlotinib-induced IL-1α release,Cal-27 HNSCC cells [2],significantly reduced
same,erlotinib-induced IL-1α release,Cal-27 HNSCC cells [2]; listed as Z-VAD,significantly reduce
same,erlotinib-induced IL-1α release,Cal-27 HNSCC cells [2]; listed as ZVAD,blocked
same,erlotinib-induced IL-1α release,Cal-27 HNSCC cells [2]; [10],blocked
same,erlotinib-induced cell death,SQ20B cells [8],blocked
same,erlotinib-induced cell death,SQ20B cells [8]; listed as Z-VAD,significantly blocked
same,erlotinib-induced cell death,SQ20B cells [8]; listed as ZVAD,blocked
same,erlotinib-induced cell death,SQ20B cells [8]; [10],blocked
same,highest dose that did not result in toxicity (optimal concentration),SQ20B and Cal27 cells,20 µM
same,baseline IL-1α levels,SQ20B HNSCC cells [6],significantly reduced
same,baseline IL-1α levels,SQ20B HNSCC cells [6]; listed as Z-VAD,significantly reduce
same,erlotinib-induced IL-1α release,SQ20B HNSCC cells [6],significantly reduced
same,erlotinib-induced IL-1α release,SQ20B HNSCC cells [6]; listed as Z-VAD,significantly reduce
same,erlotinib-induced IL-1α release,SQ20B HNSCC cells [6]; listed as ZVAD,blocked
same,erlotinib-induced IL-1α release,SQ20B HNSCC cells [6]; [10],blocked
